The text below walks through data of patent US20250353857A1, “COMPOUND ACTIVE AS INHIBITOR OF COLONY STIMULATION FACTOR-1 RECEPTOR (CSF-1 R)” (priority 2022, published 2025).

This test deals with CSF1R (Homo sapiens (Human), UniProt P07333). As to the kind of experiment: CSF1R enzymatic inhibitory assay (Invitrogen Z'-LYTE, FRET).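 Further: kinase phosphorylates a tyrosine on a coumarin/fluorescein FRET peptide, a protease cuts peptide left unphosphorylated, inhibition quantified from the donor-to-acceptor emission ratio with excitation at 400 nm.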 In kind it is biochemical. Particulars: Z'-LYTE assay, ATP concentration equal to Km, average of at least 2 titration curves; read-out: CSF1R (IC50).
Chain of CSF1R (P07333 20-972): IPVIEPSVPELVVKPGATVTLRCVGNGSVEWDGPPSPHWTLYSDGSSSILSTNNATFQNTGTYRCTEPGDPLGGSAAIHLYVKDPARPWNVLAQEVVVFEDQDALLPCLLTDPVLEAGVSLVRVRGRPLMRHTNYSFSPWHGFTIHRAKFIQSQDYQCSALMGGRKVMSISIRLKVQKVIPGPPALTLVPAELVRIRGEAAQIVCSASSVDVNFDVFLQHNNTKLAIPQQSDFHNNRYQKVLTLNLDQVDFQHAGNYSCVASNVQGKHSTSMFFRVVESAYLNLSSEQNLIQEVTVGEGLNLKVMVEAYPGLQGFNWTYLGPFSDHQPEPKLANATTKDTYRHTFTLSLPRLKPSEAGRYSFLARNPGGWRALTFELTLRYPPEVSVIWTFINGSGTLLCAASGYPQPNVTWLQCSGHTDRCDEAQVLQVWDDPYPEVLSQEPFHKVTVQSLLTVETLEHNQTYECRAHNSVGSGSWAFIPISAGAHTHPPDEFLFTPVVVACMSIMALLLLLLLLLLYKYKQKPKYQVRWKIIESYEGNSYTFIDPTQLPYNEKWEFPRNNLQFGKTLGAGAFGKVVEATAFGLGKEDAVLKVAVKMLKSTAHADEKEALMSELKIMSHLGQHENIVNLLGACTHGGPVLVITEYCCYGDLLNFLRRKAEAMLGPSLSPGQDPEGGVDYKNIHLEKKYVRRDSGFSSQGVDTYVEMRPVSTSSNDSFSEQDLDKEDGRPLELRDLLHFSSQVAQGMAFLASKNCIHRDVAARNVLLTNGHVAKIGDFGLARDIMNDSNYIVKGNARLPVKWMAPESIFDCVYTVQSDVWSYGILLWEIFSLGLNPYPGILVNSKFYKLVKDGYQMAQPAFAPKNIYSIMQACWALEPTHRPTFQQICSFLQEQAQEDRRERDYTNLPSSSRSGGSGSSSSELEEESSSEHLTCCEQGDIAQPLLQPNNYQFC
As a reminder, the IC50 is the concentration that inhibits the measured activity by half. Turning to `COc1cccc(CN(C)c2ncnc3[nH]c(-c4ccc(CO)cc4)nc23)c1` [TIA03-014, N-(3-Methoxybenzyl)-N-methyl-8-(4-(hydroxymethyl)phenyl)-9H-purin-6-amine], the IC50 was determined as 2.7 ± 0.1 nM.

Consider `Oc1ccc(-c2cc3c(NCc4ccccc4)ncnc3[nH]2)cc1` [JK-367, 4-(4-(Benzylamino)-7H-pyrrolo[2,3-d]pyrimidin-6-yl)phenol], for which the IC50 was greater than 200 nM.

With `CN(Cc1cccnc1)c1ncnc2[nH]c(-c3ccccc3)nc12` [TIA109, N-Methyl-8-phenyl-N-(pyridin-3-ylmethyl)-9H-purin-6-amine], the IC50 was 2.2 nM.

With `CN(Cc1ccccc1)c1ncnc2sc(-c3ccc(CO)cc3)cc12` [BAHO-3-107, (4-(4-(Benzyl(methyl)amino)thieno[2,3-d]pyrimidin-6-yl)phenyl)methanol], the half-inhibitory concentration (IC50) was 707 ± 79 nM.

With `CN(Cc1cc(Cl)ccc1Cl)c1ncnc2[nH]c(-c3ccc(CN4CCOCC4)cc3)cc12` [LR-2-123, N-(2,5-Dichlorobenzyl)-N-methyl-6-(4-(morpholinomethyl)phenyl)-7H-pyrrolo[2,3-d]pyrimidin-4-amine], the IC50 came to 2.7 ± 0.4 nM.

Regarding `CN(Cc1ccccc1)c1ncnc2[nH]cnc12` [TIA008, N-Benzyl-N-methyl-9H-purin-6-amine], the 50% inhibitory concentration (IC50) came to 108 ± 7 nM.

`COc1ccc(-c2cc3c(N4CCCC4)ncnc3[nH]2)cc1` [MS-46-93, 6-(4-Methoxyphenyl)-4-(pyrrolidin-1-yl)-7H-pyrrolo[2,3-d]pyrimidine]: the IC50 worked out at 1.1 ± 0.1 nM.

Regarding `CN(Cc1ccccc1)c1ncnc2[nH]ccc12` [TIA04-067, N-Benzyl-N-methyl-7H-pyrrolo[2,3-d]pyrimidin-4-amine], the IC50 came to 68 ± 2 nM.

With `Cc1ccc(F)c(CN(C)c2ncnc3[nH]c(-c4ccccc4)cc23)c1F` [SH-01-126, N-(2,6-Difluoro-3-methylbenzyl)-N-methyl-6-phenyl-7H-pyrrolo[2,3-d]pyrimidin-4-amine], the 50% inhibitory concentration (IC50) stood at 9.1 ± 1.1 nM.

Regarding `Cc1cccc(CN(C)c2ncnc3[nH]c(-c4ccc(C5(O)COC5)cc4)cc23)c1` [LR-2-060-1, 3-(4-(4-(Methyl(3-methylbenzyl)amino)-7H-pyrrolo[2,3-d]pyrimidin-6-yl)phenyl)oxetan-3-ol], the IC50 is 0.3 nM.

For `c1ccc(CNc2ncnc3[nH]c(-c4ccccc4)nc23)cc1` [TIA099, N-Benzyl-8-phenyl-9H-purin-6-amine], the IC50 is 85 ± 10 nM.

With `CN(Cc1ccccc1)c1ncnc2[nH]c(-c3ccccc3O)nc12` [TIA073, 2-(6-(Benzyl(methyl)amino)-9H-purin-8-yl)phenol], the half-inhibitory concentration (IC50) was found to be 3.4 ± 0.2 nM.

Take `NC1NC=Nc2[nH]c(-c3ccc(CO)cc3)cc21` (stereo not drawn) [TIA05-102]: the IC50 came out at 85 nM.

In the case of `C[C@H](c1ccccc1)N(C)c1ncnc2[nH]c(-c3ccccc3)cc12` [KUL01-093, (R)—N-Methyl-6-phenyl-N-(1-phenylethyl)-7H-pyrrolo[2,3-d]pyrimidin-4-amine], the IC50 was 54 ± 5 nM.

Turning to `OC1(c2ccc(-c3cc4c(N5CCCC5C5CCOCC5)ncnc4[nH]3)cc2)COC1` (stereo not drawn) [LR-2-067], the IC50 was 3 nM.

In the case of `Cc1ccc(F)c(CN(C)c2ncnc3[nH]c(-c4ccc(CN5CCOCC5)cc4)cc23)c1F` [SH-01-128, N-(2,6-Difluoro-3-methylbenzyl)-N-methyl-6-(4-(morpholinomethyl)phenyl)-7H-pyrrolo[2,3-d]pyrimidin-4-amine], the IC50 worked out at 0.8 nM.

As to `CN(Cc1cccc(F)c1)c1ncnc2[nH]c(-c3ccc(CO)cc3)nc12` [TIA02-132, N-Methyl-N-(3-fluorobenzyl)-8-(4-(hydroxymethyl)phenyl)-9H-purin-6-amine], the half-maximal inhibitory concentration (IC50) came to 3.5 ± 2.2 nM.

On to `CN(Cc1ccccc1Cl)c1ncnc2[nH]c(-c3ccc(CN4CCOCC4)cc3)cc12` [LR-2-091 (2), N-(2-Chlorobenzyl)-N-methyl-6-(4-(morpholinomethyl)phenyl)-7H-pyrrolo[2,3-d]pyrimidin-4-amine], for which the IC50 was determined as 1.4 ± 0.2 nM.

As for `OCc1ccc(-c2nc3c(NCc4ccccc4)ncnc3[nH]2)cc1` [TIA098, (4-(6-(Benzylamino)-9H-purin-8-yl)phenyl)methanol], the IC50 was found to be 43 ± 6 nM.

As to `CN(CC1CCN(Cc2ccccc2)CC1)c1ncnc2[nH]c(-c3ccc(CO)cc3)nc12` [TIA04-053, N-Methyl-N-(1-benzylpiperidin-4-ylmethyl)-8-(4-(hydroxymethyl)phenyl)-9H-purin-6-amine], the IC50 stood at 130 ± 12 nM.

In the case of `Cc1cccc(CN(C)c2ccnc3[nH]ccc23)c1` [CJ1_78], the IC50 is greater than 500 nM.

Turning to `CN(Cc1ccccc1)c1ncnc2[nH]c(-c3ccccc3)nc12` [TIA072, N-Benzyl-N-methyl-8-phenyl-9H-purin-6-amine], the IC50 amounted to 0.7 ± 0.1 nM.

`CN(CC1CCCCC1)c1ncnc2[nH]c(C3=CCCCC3)nc12` [TIA03-186, 8-(Cyclohex-1-en-1-yl)-N-(cyclohexylmethyl)-N-methyl-9H-purin-6-amine]: the IC50 came to 0.7 ± 0.2 nM.

In the case of `CN(Cc1cccs1)c1ncnc2[nH]c(-c3ccc(CO)cc3)nc12` [TIA03-066, N-Methyl-N-(thiophen-2-ylmethyl)-8-(4-(hydroxymethyl)phenyl)-9H-purin-6-amine], the IC50 is 3 ± 0.6 nM.

Turning to `CN(Cc1c(F)cccc1F)c1ncnc2[nH]c(-c3ccccc3)cc12` [SH-01-127, N-(2,6-Difluorobenzyl)-N-methyl-6-phenyl-7H-pyrrolo[2,3-d]pyrimidin-4-amine], the IC50 turned out to be 9.2 ± 3.3 nM.

`Cc1cccc(CN(C)c2ncnc3[nH]c(-c4ccc(C(O)(CO)CO)cc4)cc23)c1` [LR-2-060-2, 2-(4-(4-(Methyl(3-methylbenzyl)amino)-7H-pyrrolo[2,3-d]pyrimidin-6-yl)phenyl)propane-1,2,3-triol]: the half-inhibitory concentration (IC50) amounted to 3 nM.

As for `COc1ccc(-c2cc3c(N4CCCC4C)ncnc3[nH]2)cc1` (stereo not drawn) [MS1-60-134, 6-(4-Methoxyphenyl)-4-(2-methylpyrrolidin-1-yl)-7H-pyrrolo[2,3-d]pyrimidine], the IC50 came out at 0.7 ± 0.1 nM.

`COc1ccc(CN(C)c2ncnc3[nH]c(-c4ccc(CO)cc4)nc23)cc1OC` [TIA03-080, N-(3,4-Dimethoxybenzyl)-N-methyl-8-(4-(hydroxymethyl)phenyl)-9H-purin-6-amine]: the IC50 was 5.7 ± 0.3 nM.

Regarding `Cc1cccc(CN(C)c2ncnc3[nH]ccc23)c1` [TIA04-069, N-Methyl-N-(3-methylbenzyl)-7H-pyrrolo[2,3-d]pyrimidin-4-amine], the IC50 was 35 nM.

For `OCC(O)(CO)c1ccc(-c2cc3c(N4CCCC4C4CCOCC4)ncnc3[nH]2)cc1` (stereo not drawn) [LR-2-052-2], the IC50 stood at 3 nM.

As for `COc1ccc(CN(C)c2ncnc3[nH]c(-c4ccc(CO)cc4)nc23)cc1` [TIA03-078, N-(4-Methoxybenzyl)-N-methyl-8-(4-(hydroxymethyl)phenyl)-9H-purin-6-amine], the IC50 is 61 ± 3 nM.

For the molecule `CN(Cc1cccnc1)c1ncnc2[nH]c(-c3ccc(CO)cc3)nc12` [TIA03-016, N-Methyl-N-(pyridin-3-ylmethyl)-8-(4-(hydroxymethyl)phenyl)-9H-purin-6-amine], the IC50 was determined as 3.8 ± 0.4 nM.

Take `Cc1ccccc1CN(C)c1ncnc2[nH]c(-c3ccc(CO)cc3)nc12` [TIA03-136, N-Methyl-N-(2-methylbenzyl)-8-(4-(hydroxymethyl)phenyl)-9H-purin-6-amine]: the IC50 was found to be 1.8 nM.

On to `COc1ccc(-c2cc3c(NCc4ccccc4)ncnc3[nH]2)cc1` [JK-356, N-Benzyl-6-(4-methoxyphenyl)-7H-pyrrolo[2,3-d]pyrimidin-4-amine], for which the IC50 worked out at 6.2 ± 0.4 nM.

With `CN(Cc1cccc(Cl)c1)c1ncnc2[nH]c(-c3ccc(CN4CCOCC4)cc3)cc12` [LR-2-088 (3), N-(3-Chlorobenzyl)-N-methyl-6-(4-(morpholinomethyl)phenyl)-7H-pyrrolo[2,3-d]pyrimidin-4-amine], the half-inhibitory concentration (IC50) stood at 0.9 ± 0.9 nM.

For `Cc1cccc(CN(C)c2ncnc3[nH]c(-c4cnn(C(C)C)c4)cc23)c1` [LR-2-108, 6-(1-Isopropyl-1H-pyrazol-4-yl)-N-methyl-N-(3-methylbenzyl)-7H-pyrrolo[2,3-d]pyrimidin-4-amine], the IC50 turned out to be 0.4 ± 0.3 nM.

For `CCN(Cc1ccccc1)c1ncnc2[nH]c(-c3ccc(OC)cc3)nc12` [EH-93, N-Benzyl-N-ethyl-8-(4-methoxyphenyl)-9H-purin-6-amine], the concentration for half-maximal inhibition (IC50) is greater than 50 nM.

`CC(C)N(Cc1ccccc1)c1ncnc2[nH]c(-c3ccc(CO)cc3)nc12` [EH02-21, (4-(6-(Benzyl(isopropyl)amino)-9H-purin-8-yl)phenyl)methanol]: the IC50 is greater than 1000 nM.

As for `OCc1ccc(-c2cc3c(N4CCCC4c4ccccc4)ncnc3[nH]2)cc1` (stereo not drawn) [TIA05-178, (4-(4-(2-Phenylpyrrolidin-1-yl)-7H-pyrrolo[2,3-d]pyrimidin-6-yl)phenyl)methanol], the IC50 came out at 0.7 ± 0.1 nM.

Consider `CN(Cc1cccc(C(F)(F)F)c1)c1ncnc2[nH]c(-c3ccc(CO)cc3)nc12` [TIA03-108, N-Methyl-N-(3-trifluoromethylbenzyl)-8-(4-(hydroxymethyl)phenyl)-9H-purin-6-amine], for which the half-inhibitory concentration (IC50) worked out at 11 ± 2 nM.

For `CCOc1ccccc1-c1nc2c(N(C)Cc3ccccc3)ncnc2[nH]1` [JKS01-057, N-Benzyl-8-(2-ethoxyphenyl)-N-methyl-9H-purin-6-amine], the IC50 is greater than 1000 nM.

For `Cc1cccc(CN(C)c2ncnc3[nH]c(-c4ccc(P(C)(C)=O)cc4)cc23)c1` [LR-2-116, Dimethyl(4-(4-(methyl(3-methylbenzyl)amino)-7H-pyrrolo[2,3-d]pyrimidin-6-yl)phenyl)phosphine oxide], the IC50 is less than 0.2 nM.

For `Cc1cccc(CN(C)c2ncnc3[nH]c(-c4ccc(-c5nnn[nH]5)cc4)cc23)c1` [FAB 02-14, 6-(4-(1H-Tetrazol-5-yl)phenyl)-N-methyl-N-(3-methylbenzyl)-7H-pyrrolo[2,3-d]pyrimidin-4-amine], the IC50 came to 3 nM.

Turning to `CN(Cc1c(Cl)cccc1Cl)c1ncnc2[nH]c(-c3ccc(CN4CCOCC4)cc3)cc12` [LR-2-094 (2), N-(2,6-Dichlorobenzyl)-N-methyl-6-(4-(morpholinomethyl)phenyl)-7H-pyrrolo[2,3-d]pyrimidin-4-amine], the IC50 was 8.7 ± 1.1 nM.

For the molecule `CN(Cc1ccccn1)c1ncnc2[nH]c(-c3ccc(CO)cc3)nc12` [TIA02-164, N-Methyl-N-(pyridin-2-ylmethyl)-8-(4-(hydroxymethyl)phenyl)-9H-purin-6-amine], the IC50 turned out to be 11 ± 3 nM.
